Data reported in patent US20250120963A1, “METHODS AND COMPOSITIONS FOR THE TREATMENT OF THROMBOCYTOPENIA” (THE CHILDREN'S MEDICAL CENTER CORPORATION, priority 2023, published 2025).

How the values were obtained:
[1] = system: platelets; conditions: platelets drawn on D11, 25 mg/kg; stimulated with ADP, TRAP or CRP; listed as niraparib
Procedure: Platelets were drawn from mice at sacrifice on D11 (see FIG. 6), stimulated with agonists as indicated, and the MFI of activated αIIbβ3 measured by flow cytometry. Black markers=saline, gray markers=Niraparib, 25 mg/kg.
Platelets were drawn from mice at sacrifice on D11, stimulated with agonists as indicated, and the MFI of activated αIIbβ3 measured by flow cytometry. Black=saline, gray=Niraparib (25 mg/kg).
(§1) While MK ploidy is not directly causative of platelet production, higher ploidy MKs are associated with increased platelet production and ploidy status is indicative of more terminal MK maturation. To look further at live MKs, 2-photon intravital microscopy (2PIVM) was performed in the calvaria of vWF-GFP reporter mice (MKs and platelets are GFP+) treated with 25 mg/kg Niraparib or vehicle control DMSO for 7 days. Mice were anesthetized and a window in the calvaria was made to view the exposed bone marrow.
Platelets were drawn from mice at sacrifice on D11, stimulated with agonists as indicated, and the MFI of activated αIIbβ3 measured by flow cytometry.

[2] = system: mice
Procedure: Mice were given Niraparib (25 mg/kg, intraperitoneal) or vehicle control for 11 days. FIG. 5A) Platelet counts and immature platelet fraction were measured on a SYSMEX™ hematology analyzer. Line graph: Black circles=Vehicle, gray squares=Niraparib. Bar charts: black=Vehicle, gray=Niraparib. FIG. 5B) MKs and MK-biased HSC counts. Dark gray=DMSO (vehicle), light gray=Niraparib. FIG. 5C) expression of γH2AX. Left bar=control, right bar=Niraparib, and FIG. 5D) MK ploidy was determined by flow cytometry (see FIGS. 9A-9C). n=4-5 mice per group. Gray=Niraparib, black=Vehicle.
Mice were treated with a subtherapeutic dosage of the PARP inhibitor Niraparib (25 mg/kg, intraperitoneal) or saline control for 11 days. The dosing schedule was as follows: 5 consecutive days of Niraparib treatment followed by 2 days of drug holiday (no injection), then 4 more consecutive days of Niraparib treatment. Mice were sacrificed on day 11. Platelet counts were taken on days 0 (pre-treatment), 2, 7, 9, and 11. Cohorts of mice were sacrificed on days 3 and 11 for quantification of bone MK and progenitor populations. […] To.
Niraparib treatment were measured.

[3] = system: MKs in calvaria bone marrow of vWF-GFP reporter mice; conditions: 25 mg/kg, 7 days, vs DMSO
Procedure: as §1

[4] = system: lineage depleted murine bone marrow; assay: In vitro megakaryocyte differentiation: lineage depleted bone marrow cultured with TPO for 4 days with PARPi (VWF-GFP signal); format: cell-based; conditions: for megakaryocyte differentiation / megakaryopoiesis in vitro: TPO, 4 days, PARPi vs vehicle
Procedure: Lineage depleted bone marrow was cultured with TPO for 4 days in the presence of PARPi or vehicle controls. FIG. 14A) representative images of VWF-GFP signal. FIG. 14B) Mean normalized area of GFP signal (n=3). Error bars±SEM.Circles=Olaparib, squares=Niraparib, triangles=Rucaparib.
Lineage depleted bone marrow was cultured with TPO for 4 days in the presence of PARPi or vehicle controls (FIG. 14A-14B).
Lineage depleted murine bone marrow was cultured with TPO for 4 days in the presence of PARPi or vehicle controls (FIG. 14A-14B).

[5] = 0.03 μM vs vehicle
[6] = system: mice; conditions: 50 mg/kg daily i.p.; Niraparib 10 days, Olaparib 3 days
Procedure: Mice were treated with 50 mg/kg Niraparib or Olaparib daily (i.p.) for 10 or 3 days, respectively, and platelet counts measured by SYSMEX™.
FIG. 21A) Platelet count versus time. FIG. 21B) RBC count versus time. FIG. 21C) WBC count versus time.
8,9 Mice were treated with 50 mg/kg of Niraparib and Olaparib […].

[7] = system: C57B1/6 mice; assay: Olaparib 50 mg/kg i.p. 5 consecutive days each week in C57B1/6 mice, 2-week and 4-week experiments; format: in vivo
Procedure: C57B1/6 mice dosed with 50 mg/kg Olaparib intraperitoneally for 5 days consecutive days each week. Dark gray=vehicle, light gray=Olaparib.
Olaparib treatment increases platelet count and alters megakaryocyte ploidy in mice. C57B1/6 mice were dosed with 50 mg/kg Olaparib intraperitoneally for 5 days consecutive days each week.

[8] = system: PARylation in megakaryocytes; assay: PARylation western blot in megakaryocytes subjected to hydrogen peroxide with or without Olaparib; format: cell-based, murine; conditions: 10 mM H2O2; Olaparib 30 μM or 3 μM
Procedure: (§2) Lineage depleted murine bone marrow was cultured with TPO for 4 days. Gradient-isolated megakaryocytes subjected to 10 mM of hydrogen peroxide (H2O2) in the presence or absence of Olaparib (30 μM or 3 μM). Cells were subsequently lysed in RIPA buffer containing protease inhibitor cocktail. A western blot to detect PARylation was performed. Equal loading was confirmed using an anti-GAPDH antibody. Impage shown is a representative of three experiments.
as §2, with “megakaryocytes were” for “megakaryocytes”, “olaparib” for “Olaparib”, “performed (FIG. 18).” for “performed.”, “antibody.” for “antibody. Impage shown is a representative of three experiments.”

[9] = system: patients; conditions: ITP patients; cited from earlier work

NC(=O)c1cccc2cn(-c3ccc([C@@H]4CCCNC4)cc3)nc12 [Niraparib, 2-{4-[(3S)-Piperidin-3-yl]phenyl}-2H-indazole-7-carboxamide]
platelet function / activation [1]: does not affect platelet function | number of MK-committed HSCs positive for γH2AX ([2]; 25 mg/kg i.p.): significantly increased | γH2AX-positive MKPs ([2]; 25 mg/kg i.p.): trend to more | 2N MKs ([2]; 25 mg/kg i.p., 11 days): almost no 2N MKs | number of 32N MKs ([2]; 25 mg/kg i.p., 11 days): large increase | MK number / MK counts ([2]; 25 mg/kg i.p., bone marrow, flow cytometry, listed as niraparib): increases | MK-committed HSCs (CD41+LT-HSCs) counts ([2]; 25 mg/kg i.p., days preceding the increase in platelet counts): significant increase | immature platelet fraction ([2]; 25 mg/kg i.p., from day 7, vs saline): significant increase | platelets, percent of normal levels ([2]; Niraparib treated mice): > 150 % of normal levels | MKs in day 3 HSPC/myeloid panel ([2]; day 3, committed progenitors and classical hematopoiesis pathways): Significant increase in MKs | day 11 HSPC/myeloid panel: HSC status ([2]; day 11): HSC exhaustion | megakaryopoiesis ([2]; lower doses of niraparib): increase in megakaryopoiesis | time to significant increase in mouse platelet count ([2]; lower doses of niraparib, from initial administration): ≤ 7 days | DNA damage accumulation in megakaryocytes, γH2AX immunofluorescence on long bones ([2]; niraparib group): Increased DNA damage accumulation | MK number in bone marrow by 2-photon intravital microscopy [3]: increased MK number | megakaryocyte differentiation / megakaryopoiesis in vitro [4]: reduce megakaryocyte differentiation | megakaryocyte maturation in vitro at higher doses ([4]; lineage depleted bone marrow cells from WT mice, higher doses): decreased maturation | megakaryocyte maturation in vitro at lower doses ([4]; lineage depleted bone marrow cells from WT mice, lower doses): increased megakaryocyte maturation | ploidy in vitro [5]: increases ploidy

O=C(c1cc(Cc2n[nH]c(=O)c3ccccc23)ccc1F)N1CCN(C(=O)C2CC2)CC1 [Olaparib, 4-[(3-[(4-cyclopropylcarbonyl)piperazin-4-yl]carbonyl)-4-fluorophenyl]methyl (2H) phthalazin-1-one]
platelet counts at 50 mg/kg [6]: severe thrombocytopenia | platelet counts after day 6 ([7]; 2-week and 4-week experiments): returned to approximately baseline | megakaryocyte ploidy shift after 2-weeks ([7]; 2 weeks): fewer 8N and more 32N cells | number of megakaryocytes (CD41+CD42+ flow cytometry of bone marrow) at 2-weeks ([7]; 2 weeks): trend to fewer megakaryocytes | megakaryocyte ploidy shift after 4-weeks ([7]; 4 weeks): more 8N and fewer 16N cells | number of megakaryocytes (CD41+CD42+ flow cytometry of bone marrow) at 4-weeks ([7]; 4 weeks): trend to fewer megakaryocytes | platelet count ([7]; increase found at day 6, 2-week and 4-week experiments): surprising increase in platelet count | megakaryocyte PARylation [8]: reverses PARylation pattern | megakaryocyte differentiation / megakaryopoiesis in vitro [4]: reduce megakaryocyte differentiation

Rituximab: treatment for ITP patients, which can take 4-6 weeks for peak results
time for peak results [9]: 4-6 weeks
